From patent US20050209162A1, “Methods for monitoring IL-18” (priority 2003, published 2005)

How the values were obtained:
IL-18 = assay: Serum IL-18 levels (sandwich IL-18 ELISA) in healthy male subjects treated with oral Compound A for 14 days; type: in vivo, human; details: 900 mg q8 h oral
Method: Compound A was evaluated in a double-blind, randomized, placebo-controlled, oral dose, sequential group study in healthy male subjects. 9 subjects received 900 mg Compound A 14 days. 3 subjects received placebo treatment. Doses were administered three times a day at 8-hour intervals on Days 1 to 13 inclusive, and once in the morning of Day 14. All doses were administered in the fasted state.
Blood samples (1×3.5 mL) were taken by venepuncture or cannulation of a forearm vein(s).
Blood samples were collected into 3.5 mL SST Vacutainer® tubes (Becton Dickinson UK Ltd., Oxford) and, after mixing, stored at ambient temperature for at least 30 min prior to centrifugation. The samples were centrifuged, within 1 hour of collection, at 1500 g for 10 minutes at approximately 4° C. For each sample, the separated serum was transferred into two 5 mL suitably labelled polypropylene tubes (at least 0.6 mL in each tube), and stored within 2 hours of collection, at approximately −70° C. the laboratory for IL-18 assay.
IL-18 was assayed using a sandwich IL-18 ELISA technique (Human IL-18 ELISA Kit, Medical and Biological Laboratories, Nagoya, Japan). Standards, Controls and Samples were incubated in wells coated with an anti-human IL-18 monoclonal antibody. […] The developed color was then measured at an OD of 450 using a 630 nm reference filter.

[1] = Absorption and conversion to Compound B upon oral administration; type: in vivo; details: converted into Compound B
ICE = target: T1, ICE (Homo sapiens, UniProt P29466); assay: ICE inhibition constant (Ki); type: biochemical
T1 sequence (P29466 120-297 limits assumed): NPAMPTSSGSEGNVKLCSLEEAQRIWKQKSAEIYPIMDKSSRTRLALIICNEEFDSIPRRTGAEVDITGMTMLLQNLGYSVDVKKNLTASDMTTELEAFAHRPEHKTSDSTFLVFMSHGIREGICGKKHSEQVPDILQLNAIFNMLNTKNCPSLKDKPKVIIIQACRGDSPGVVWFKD
T1 sequence (P29466 317-404 limits assumed): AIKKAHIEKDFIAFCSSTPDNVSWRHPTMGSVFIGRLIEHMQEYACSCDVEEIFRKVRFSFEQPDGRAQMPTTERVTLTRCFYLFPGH

| SMILES | inhibition of serum IL-18 concentrations (in words) (IL-18; 14-day treatment period) | inhibition at 900 mg (IL-18; Homo sapiens, 336 h, over 14 days of treatment, read-out: inhibition of serum IL-18 median levels) [%] | absorption upon oral administration [1] | Type of ICE inhibition (ICE) |
| --- | --- | --- | --- | --- |
| CCO[C@@H]1OC(=O)C[C@@H]1NC(=O)[C@@H]1CCCN1C(=O)[C@@H](NC(=O)c1ccc(N)c(Cl)c1)C(C)(C)C [Compound A] | gradual but marked inhibition | ~60 | rapidly absorbed |  |
| CC(C)(C)[C@H](NC(=O)c1ccc(N)c(Cl)c1)C(=O)N1CCC[C@H]1C(=O)N[C@H](C=O)CC(=O)O [Compound B] |  |  |  | selective and reversible ICE inhibitor |
